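Protocol summary: plate cells (96-well), add compound at 5 concentrations, incubate 48 h, interpolate endpoints linearly. Abbreviation: GI50, concentration required for 50% inhibition of growth.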 Calls of active or inactive are those of the source. No stated cut-off is given here; in the data, active = GI50 up to about 1.1 µM and inactive = higher.
Tests used:
Assay in all cases: inhibition of tumour cell growth, NCI panel, 48 h
LOX IMVI = tested on: LOX IMVI
OVCAR-8 = tested on: OVCAR-8
786-0 = tested on: 786-0
SNB-75 = tested on: SNB-75
SNB-19 = tested on: SNB-19
CCRF-CEM = tested on: CCRF-CEM
CAKI-1 = tested on: CAKI-1
NCI-H460 = tested on: NCI-H460
TK-10 = tested on: TK-10
SF-295 = tested on: SF-295
HCT-15 = tested on: HCT-15
HL-60 = tested on: HL-60
Malme-3M = tested on: Malme-3M
T47D = tested on: T47D
NCI-H522 = tested on: NCI-H522
NCI/ADR-RES = tested on: NCI/ADR-RES
UO-31 = tested on: UO-31
RPMI-8226 = tested on: RPMI-8226
KM12 = tested on: KM12
DU-145 = tested on: DU-145

Compound | GI50 (LOX IMVI) | GI50 (OVCAR-8) | GI50 (786-0) | GI50 (SNB-75) | GI50 (SNB-19) | GI50 (CCRF-CEM) | GI50 (CAKI-1) | GI50 (NCI-H460) | GI50 (TK-10) | GI50 (SF-295) | GI50 (HCT-15) [µM] | GI50 (HL-60) | GI50 (Malme-3M) | GI50 (T47D) | GI50 (NCI-H522) | GI50 (NCI/ADR-RES) | GI50 (UO-31) | GI50 (RPMI-8226) | GI50 (KM12) | GI50 (DU-145)
CCNc1cc2c(cc1O)CC[C@@H]1[C@@H]2CC[C@]2(C)[C@@H](O)CC[C@@H]12 | 2.98 µM (inactive) | 11.7 µM (inactive) | 9.91 µM (inactive) | 0.272 µM (active) | 0.82 µM (active) | 1.41 µM (inactive) | 13.5 µM (inactive) | 0.489 µM (active) | 19.5 µM (inactive) | 0.912 µM (active) | 0.942 | 1.52 µM (inactive) | 3.75 µM (inactive) | 6.04 µM (inactive) | 2.04 µM (inactive) | 1.04 µM (active) | 6.75 µM (inactive) | 2.31 µM (inactive) | 9.04 µM (inactive) | –
FC(F)(F)c1nc2cc(SSc3cc4nc(C(F)(F)F)[nH]c4cc3Cl)c(Cl)cc2[nH]1 | > 100 µM (inactive) | > 100 µM (inactive) | > 100 µM (inactive) | – | > 100 µM (inactive) | – | > 100 µM (inactive) | > 100 µM (inactive) | > 100 µM (inactive) | > 100 µM (inactive) | > 100 | > 100 µM (inactive) | 82.8 µM (inactive) | – | 66.4 µM (inactive) | > 100 µM (inactive) | – | > 100 µM (inactive) | – | > 100 µM (inactive)
Oc1cc(-c2ccc(Cl)cc2)cn2c1nc1ccccc12 | 1.88 µM (inactive) | 17.6 µM (inactive) | 25.8 µM (inactive) | 16.1 µM (inactive) | 52.4 µM (inactive) | – | > 100 µM (inactive) | 5.21 µM (inactive) | > 100 µM (inactive) | > 100 µM (inactive) | > 100 | 2.66 µM (inactive) | > 100 µM (inactive) | > 100 µM (inactive) | 2.09 µM (inactive) | > 100 µM (inactive) | > 100 µM (inactive) | – | 5.47 µM (inactive) | > 100 µM (inactive)
CC1(C)OP(=O)(O)C=C1Sc1ccc([N+](=O)[O-])cc1[N+](=O)[O-] | > 100 µM (inactive) | > 100 µM (inactive) | > 100 µM (inactive) | > 100 µM (inactive) | > 100 µM (inactive) | – | > 100 µM (inactive) | > 100 µM (inactive) | > 100 µM (inactive) | > 100 µM (inactive) | > 100 | > 100 µM (inactive) | > 100 µM (inactive) | > 100 µM (inactive) | > 100 µM (inactive) | > 100 µM (inactive) | – | – | > 100 µM (inactive) | > 100 µM (inactive)
CCOC(=O)c1c(CN2CCOCC2)n(Cc2ccccc2)c2c1cc(O)c1nc(C)c(C)nc12 | 46.6 µM (inactive) | 15.5 µM (inactive) | 27.7 µM (inactive) | 9.98 µM (inactive) | 38.2 µM (inactive) | > 100 µM (inactive) | 22.1 µM (inactive) | 42 µM (inactive) | 30.3 µM (inactive) | 56.5 µM (inactive) | 57 | > 100 µM (inactive) | 45.8 µM (inactive) | 20 µM (inactive) | – | 35.5 µM (inactive) | 36.1 µM (inactive) | 30.3 µM (inactive) | > 100 µM (inactive) | 78.2 µM (inactive)
Cc1ccc(Nc2n[nH]c(=S)s2)cc1 | > 100 µM (inactive) | > 100 µM (inactive) | > 100 µM (inactive) | > 100 µM (inactive) | > 100 µM (inactive) | > 100 µM (inactive) | > 100 µM (inactive) | > 100 µM (inactive) | > 100 µM (inactive) | > 100 µM (inactive) | > 100 | > 100 µM (inactive) | > 100 µM (inactive) | 96.6 µM (inactive) | – | > 100 µM (inactive) | 87.9 µM (inactive) | > 100 µM (inactive) | 69 µM (inactive) | > 100 µM (inactive)
CN(C)C(=S)C(Cl)(c1ccccc1)c1ccccc1 | 34.5 µM (inactive) | 73.8 µM (inactive) | 44.4 µM (inactive) | 15.8 µM (inactive) | > 100 µM (inactive) | 27.1 µM (inactive) | > 100 µM (inactive) | > 100 µM (inactive) | > 100 µM (inactive) | > 100 µM (inactive) | 63 | 22.9 µM (inactive) | > 100 µM (inactive) | 22.4 µM (inactive) | 33.3 µM (inactive) | 89.5 µM (inactive) | 84.9 µM (inactive) | – | 46.3 µM (inactive) | 40.6 µM (inactive)
C=C(Cl)/C(=C\Cl)CCC(Br)C(C)C (stereo unspecified) | 15.8 µM (inactive) | – | 60.1 µM (inactive) | > 100 µM (inactive) | > 100 µM (inactive) | 44.5 µM (inactive) | > 100 µM (inactive) | > 100 µM (inactive) | > 100 µM (inactive) | > 100 µM (inactive) | – | 63.5 µM (inactive) | – | – | 21.1 µM (inactive) | > 100 µM (inactive) | 78.2 µM (inactive) | > 100 µM (inactive) | > 100 µM (inactive) | > 100 µM (inactive)
CC(C)CCCC(C)[C@H]1CCC2[C@@H]3CCC4Cc5nc6c(nc5C[C@]4(C)C3CC[C@@]21C)CC1CC[C@@H]2C(CC[C@@]3(C)C2CC[C@@H]3C(C)CCCC(C)C)[C@@]1(C)C6 (stereo partly specified) | > 100 µM (inactive) | > 100 µM (inactive) | > 100 µM (inactive) | 38.8 µM (inactive) | > 100 µM (inactive) | > 100 µM (inactive) | – | > 100 µM (inactive) | > 100 µM (inactive) | > 100 µM (inactive) | > 100 | > 100 µM (inactive) | > 100 µM (inactive) | > 100 µM (inactive) | – | > 100 µM (inactive) | > 100 µM (inactive) | > 100 µM (inactive) | > 100 µM (inactive) | > 100 µM (inactive)
CCCC/C=C1\CCC(CN2CCCCC2)C1=O (stereo unspecified) | > 28.9 µM (inactive) | 12.8 µM (inactive) | 6.31 µM (inactive) | > 100 µM (inactive) | 31.7 µM (inactive) | 7.73 µM (inactive) | 9.48 µM (inactive) | 33.6 µM (inactive) | 12.4 µM (inactive) | 30.5 µM (inactive) | 9.06 | 7.6 µM (inactive) | 8.55 µM (inactive) | > 100 µM (inactive) | – | > 100 µM (inactive) | 32.8 µM (inactive) | – | – | > 100 µM (inactive)
CCC1CCN=C(Cn2cc(C)c(=O)[nH]c2=O)N1 (stereo unspecified) | > 100 µM (inactive) | > 100 µM (inactive) | > 100 µM (inactive) | > 100 µM (inactive) | > 100 µM (inactive) | 0.201 µM (active) | – | > 100 µM (inactive) | > 100 µM (inactive) | > 100 µM (inactive) | > 100 | – | > 100 µM (inactive) | > 100 µM (inactive) | > 100 µM (inactive) | > 100 µM (inactive) | > 100 µM (inactive) | – | – | > 100 µM (inactive)
Nc1nc(Br)nc2ncn(C3CC(O)C(CO)O3)c12 (stereo unspecified) | > 72.9 µM (inactive) | 0.236 µM (active) | 77.3 µM (inactive) | > 100 µM (inactive) | 42.2 µM (inactive) | < 0.01 µM (active) | 16 µM (inactive) | 85.1 µM (inactive) | > 100 µM (inactive) | > 100 µM (inactive) | > 100 | – | > 100 µM (inactive) | > 100 µM (inactive) | > 100 µM (inactive) | – | 7.21 µM (inactive) | > 90.2 µM (inactive) | > 100 µM (inactive) | > 100 µM (inactive)
C[C@@]1(CO)[C@H](O)CC[C@@]2(C)[C@H]1CC[C@H]1C[C@@H]3C[C@@]12CC[C@@]3(O)COC(=O)CN | 5.57 µM (inactive) | – | 0.923 µM (active) | – | – | 0.67 µM (active) | 0.762 µM (active) | – | 56.5 µM (inactive) | – | – | 0.293 µM (active) | – | 11.4 µM (inactive) | – | – | 4.7 µM (inactive) | 6.56 µM (inactive) | 28 µM (inactive) | 2.67 µM (inactive)
COCCN(C(=O)c1ccccc1)C1CCC2(SCCS2)c2[nH]c3ccccc3c21 (stereo unspecified) | 57.7 µM (inactive) | 25.6 µM (inactive) | 60.8 µM (inactive) | 70.1 µM (inactive) | 89.5 µM (inactive) | 29.8 µM (inactive) | 79.6 µM (inactive) | 29.6 µM (inactive) | 79.1 µM (inactive) | 42.7 µM (inactive) | 28.8 | 14.9 µM (inactive) | 36.2 µM (inactive) | – | 23.3 µM (inactive) | 30.2 µM (inactive) | 40.7 µM (inactive) | 20.2 µM (inactive) | 28.5 µM (inactive) | > 100 µM (inactive)
CN(C(=O)c1ccc(Cl)cc1)C(=S)N1CCN(c2ccccc2)CC1 | > 100 µM (inactive) | > 100 µM (inactive) | > 100 µM (inactive) | 46.7 µM (inactive) | > 100 µM (inactive) | 56.6 µM (inactive) | – | 37.8 µM (inactive) | > 100 µM (inactive) | > 100 µM (inactive) | 87.5 | 35.6 µM (inactive) | > 100 µM (inactive) | > 100 µM (inactive) | 51.5 µM (inactive) | – | 20.1 µM (inactive) | 64.3 µM (inactive) | 53.2 µM (inactive) | > 100 µM (inactive)
O=c1[nH]c(=O)n(C2OC(CO)C(O)C2O)cc1OCCc1ccccc1 (stereo unspecified) | > 100 µM (inactive) | > 100 µM (inactive) | > 100 µM (inactive) | – | > 100 µM (inactive) | > 100 µM (inactive) | > 100 µM (inactive) | > 100 µM (inactive) | > 100 µM (inactive) | > 100 µM (inactive) | > 100 | > 100 µM (inactive) | > 100 µM (inactive) | > 100 µM (inactive) | > 100 µM (inactive) | > 100 µM (inactive) | – | – | > 100 µM (inactive) | > 100 µM (inactive)

Source: ChEMBL document CHEMBL1201862, “PubChem BioAssay data set” (2004)
